Experimental data taken from patent publication US12582616B2, “Molecular targets for modulation of dissociative and associative states” (The Board of Trustees of the Leland Stanford Junior …, priority 2020, dated 2026).
Entries after “also recorded” stand apart in the source; their conditions may differ.

Assays:
[1] = system: mice; test: Open field test; format: in vivo, mouse; details: 5 min session, compared with saline
Text: Open Field Test: Mice were placed in an evenly illuminated 50 cm×50 cm open field test box. Mouse position was captured using a webcam and Viewer software (Biobserve).

[2] = system: brain regions correlated with RSP; test: Simultaneous recording from four Neuropixels probes with i.p. drug delivery
Procedure: Mice were anesthetized with isoflurane, carefully leveled in a stereotaxic apparatus and their scalp and periosteum were removed. A 3% hydrogen peroxide in saline solution was used to clean the surface of the skull. A custom stainless steel headbar was leveled on the skull and attached using clear dental cement. After the cement had dried, targeted probe entry sites were stereotaxically marked on the cement layer with a permanent marker (Day 1: “mPFC”, 2.3AP, 0.6ML; “somatosensory”, −0.7AP, −4.0ML; “retrosplenial”, −2AP, −1 ML; “subiculum”, −3.5AP, 2.14ML; Day 2: “OFC”: 2.5AP, 1.5ML; “mPFC”: 2.3AP, −0.6ML; “retrosplenial”, −2AP, 1ML; “thalamus”, −1.5AP, −1.7ML). In part, they were selected to cover areas with known connectivity to the retrosplenial cortex. A 2 mm long insulated platinum-iridium wire was implanted centrally over the cerebellum, with the last several hundred microns bared to serve as an electrical reference.
Mice were acclimated to head fixation and the recording rig over several days before recording. Several hours before recording, mice were anesthetized for approximately 30 minutes each while small 1 mm craniotomies were made over four pre-marked areas. Craniotomies were kept clean of bone fragments and made such that bleeding was minimized. The skull was covered with a pool of saline and with Quik-Cast to protect and keep moist craniotomies before recording. Mice recovered in their homecages before recording. Immediately prior to recording set up, mice were very briefly anesthetized with isoflurane and implanted with an IV catheter system (BD Saf-T-Intima Closed IV Catheter System: 22G×3/4′, containing an integrated Y adaptor and safety lock) to their intraperitoneal cavity and affixed with glue. […] While still anesthetized, mice were headfixed and tubing was secured stably to a custom mouse holder by tape. Quik-Cast was removed from the skull, and craniotomies were briefly cleaned before being submerged in a pool of saline. […] The four acquisitions were synchronized using a common squarewave signal recorded for all probes and aligned to the nearest pulse edge. […]

[3] = system: retrosplenial cortex (RSP); test: Widefield imaging of cortical activity in GCaMP6s mice
Text: We recorded multiregional neuronal activity by leveraging widefield microscopy, a cleared skull preparation, and atlas registration in GCaMP6s-expressing mice (FIGS. 1A-1C)^6,8,15.
As described^8, mice were anesthetized with isoflurane, the scalp was removed, the skull cleaned and dried, and a custom head-plate was cemented to contacts over the cerebellum and in front of the olfactory bulb. The skull was then covered in a thin layer of cyanoacrylate glue (Apollo 2000, Cyberbond), clear dental acrylic (Ortho-Jet, Lang Dental), and clear nail polish (Electron Microscopy Services). […] (0.1 mg/kg) was injected subcutaneously for pain management. […] Imaging was performed on a custom-built fluorescence microscope designed for high light collection efficiency and large field of view. […] Alternating 410 nm and 488 nm illumination for non-Ca^2+ dependent artifact removal was controlled using a microcontroller (Arduino) slaved to the frame output trigger of the camera.
Each trace (corresponding to either a fiber photometry signal, a cellular two-photon signal, a widefield regional centroid, a widefield pixel, an sEEG trace, or a smoothed spike rate Neuropixels trace) was z-scored, and the power spectral density (PSD) was then estimated using Welch's method (pwelch( ) in Matlab), with a window size of 10*fs (15*fs for human sEEG) where fs is the sampling rate of the signal. The average band power within a specified band (i.e. 1-3 Hz) was then computed by integrating the PSD estimate (bandpower in Matlab). […] Unless otherwise indicated, the PSD was computed across the time window from minutes 10 to 11 post-injection.

[4] = system: humans; details: human; cited from earlier work
[5] = system: retrosplenial cortex (RSP); test: Retrosplenial gene disruption (HCN1, GRIN1) and fiber photometry; format: in vivo, mouse
Procedure: A 405 nm and 470 nm LED illumination (Thorlabs) was combined (425 nm longpass, Thorlabs DMLP425) and coupled into a fiber optic patch cord (400 μm diameter, 0.48 NA, Doric Lenses) using a longpass dichroic (505 nm, Thorlabs DMLP505) and a fixed-focused coupler/collimator with a standard FC connector (F240FC-A, NA 0.51, f=7.9 mm)^47,48. Each illumination channel was frequency modulated using the sync output from a lock-in amplifier (SR810 DSP, Stanford Research Systems).
Analysis was performed using custom MATLAB (MathWorks) scripts. Widefield imaging videos were registered to a 2D top-projection atlas generated from the annotated Allen Brain Atlas volume, version CCFv2, in MATLAB (MathWorks), using an affine transformation computed from four manually selected control points. Each video was DF/F normalized, using the median for each pixel over the entire time series as F. The 410 nm channel was then temporally smoothed using a moving average (width=400 ms). The smoothed 410 nm DF/F signal for each pixel was regressed onto the 488 nm DF/F signal for the corresponding pixel, and the regression coefficients were used to scale the 410 nm channel to the 488 nm channel. This scaled 410 nm DF/F signal was then subtracted from the 488 nm DF/F signal to produce a normalized signal for each pixel. For quantification, activity traces were extracted from points centered in five cortical regions (visual, somatosensory, parietal, motor, retrosplenial) on the left hemisphere of the brain. The video data was Gaussian smoothed spatially (radius=2 pixels). Similarly, for fiber photometry recordings, the 410 nm signal was regressed onto the 488 nm signal, the 410 nm signal was scaled by the regression coefficients, and then subtracted from the 488 nm signal.
Stereotaxic Surgery: Adult male and female HCN1^f/f, NR1^f/f, or wildtype C57/BI6 were injected bilaterally in two retrosplenial locations (AP −3.1 and −3.4, ML+/−0.5, DV −0.5) with 1 uL of AAV8-Ef1 a-mCherry-IRES-Cre (titer 5E11) and AAVdj-Ef1a-DIO-GCaMP6m (titer 1E13). A 400-micron optical fiber was implanted over one injection location. […]

[6] = system: mice; test: Tail suspension test; format: in vivo, mouse
Procedure: Tail Suspension Test: Mouse activity was recorded using a 60 Hz web camera. Struggling activity was quantified for minutes 2-10. […] Illumination began 30 seconds before tails were secured with tape and suspended from the beam. Mice were excluded if they climbed on their own tails.

[7] = system: mouse; details: cited from earlier work

CNC1(c2ccccc2Cl)CCCCC1=O (centres unmarked) [ketamine]
open-field locomotion velocity [1]: decreased velocity
correlations of brain regions with RSP ([2]; 8-12 min after 50 mg/kg ketamine i.p.): correlations with RSP were reduced
correlation of laterodorsal and anteroventral thalamus with each other and RSP ([2]; subanesthetic ketamine): became more-strongly correlated to each other and RSP
rhythmicity of specific subcortical regions ([2]; subanesthetic ketamine): exhibiting increased rhythmicity
magnitude of RSP rhythm on repeated days ([3]; five consecutive days): exhibited similar magnitude across five consecutive days
1-3 Hz oscillation localized to retrosplenial cortex (RSP), widefield imaging ([3]; i.p. injection, ketamine 50 mg/kg): a 1-3 Hz oscillation emerged in retrosplenial cortex (RSP), but not in any other cortical region
dose at which humans consistently report potent dissociation [4]: 2 to 3 mg/kg
typical dose for anti-depressant effects [4]: 0.3 to 1 mg/kg
ketamine-induced RSP oscillation ([5]; local GRIN1 (NMDAR) knockout in RSP): significantly diminished; also recorded: partially attenuated; also recorded: Reduced ketamine-induced oscillation-power
ketamine-induced RSP oscillation ([5]; local HCN1 knockout in RSP): significantly diminished; also recorded: selectively abolished both the ketamine-induced rhythm and dissociation-like behavioral effects; also recorded: no longer induced the deep retrosplenial rhythm; also recorded: Reduced ketamine-induced oscillation-power
ketamine-induced RSP oscillation ([5]; wild-type): preserved in wild-type
tail-suspension escape responses ([6]; ketamine >=25 mg/kg): similarly suppressed tail-suspension escape responses
tail suspension-escape behavior ([6]; ketamine, both channel-knockouts vs wild-type): modestly-recovered tail suspension-escape behavior
typical dose for anti-depressant effects [7]: 3 to 10 mg/kg
